By melting point is commonly meant the temperature, or range, at which the solid turns liquid.

SMILES strings stand for the structures.

Molecule `COC(=O)c1c(Cc2ccc(C(=O)NCCO)cc2)c(=O)c2ccc(C(F)(F)F)nc2n1-c1ccccc1` [Compound 116] showed a melting point of 170 to 173 °C.

For `COC(=O)c1c(Cc2ccccc2)c(=O)c2ccc(Cl)cc2n1-c1ccccc1` [Compound 120], the melting point fell in the range of 200 to 201 °C.

Regarding `COC(=O)c1c(CN2CCS(=O)(=O)CC2)c(=O)c2ccc(F)cc2n1-c1ccccc1` [Compound 132], the melting point lay in the range of 119 to 120 °C.

`COC(=O)c1c(Cc2ccc(S(=O)(=O)C(C)CO)cc2)c(=O)c2ccc(C)nc2n1-c1ccccc1` (stereo not drawn) [Compound 119]: the melting point was 195.9 to 197.2 °C.

`COCCOC(=O)c1c(Cc2ccccc2)c(=O)c2ccc(F)cc2n1-c1ccccc1` [Compound 130, 3-Benzyl-7-fluoro-4-oxo-1-phenyl-1,4-dihydro-quinoline-2-carboxylic acid 2-methoxy-ethyl ester] registered a melting point of 168 to 169 °C.

Consider `COC(=O)c1c(Cc2ccc(S(C)(=O)=O)nc2)c(=O)c2ccc(C)nc2n1-c1ccccc1` [Compound 92, 3-(6-Methanesulfonyl-pyridin-3-ylmethyl)-7-methyl-4-oxo-1-phenyl-1,4-dihydro[1,8]naphthyridine-2-carboxylic Acid Methyl Ester], for which the melting point fell in the range of 217 to 218 °C.

Turning to `COC(=O)c1c(Cc2ccc(OC)nc2)c(=O)c2ccc(C)nc2n1-c1ccccc1` [Compound 102, 3-(6-Methoxypyridin-3-ylmethyl)-7-methyl-4-oxo-1-phenyl-1,4-dihydro[1,8]naphthridine-2-carboxylic Acid Methyl Ester], the melting point lay within 176 to 177 °C.

With `COC(=O)c1c(Cc2ccc(Cl)nc2)c(=O)c2ccc(C)nc2n1-c1ccccc1` [Compound 83, 3-(6-chloro-pyridin-3-ylmethyl)-7-methyl-4-oxo-1-phenyl-1,4-dihydro[1,8]naphthyridine-2-carboxylic acid methyl ester], the melting point lay within 220 to 220.5 °C.

In turn, `COC(=O)c1c(Cc2ccc(S(C)(=O)=O)cc2)c(=O)c2ccc(C(F)(F)F)nc2n1-c1ccccc1` [Compound 115] displayed a melting point of 193 to 195 °C.

For the molecule `CCOC(=O)C1CCN(Cc2c(C(=O)OC)n(-c3ccccc3)c3cc(F)ccc3c2=O)CC1` [Compound 133], the melting point is 136 to 137 °C.

Consider `CCOC(=O)c1c(Cc2ccccc2)c(=O)c2ccc(Cl)cc2n1-c1ccccc1` [Compound 121], for which the melting point fell in the range of 179 to 180 °C.

Turning to `COC(=O)c1c(Cc2ccc(S(=O)(=O)N3CCNCC3(C)C)cc2)c(=O)c2ccc(F)cc2n1-c1ccccc1.Cl`, the melting point was 211 to 212 °C.

`COC(=O)c1c(Cc2ccc(S(=O)(=O)N3CCN(C(=O)OC(C)(C)C)CC3)cc2)c(=O)c2ccc(F)cc2n1-c1ccccc1` [Compound 108] returned a melting point of 120 to 121 °C.

As for `COC(=O)c1c(Cc2ccc(C(=O)CBr)cc2)c(=O)c2ccc(C)nc2n1-c1ccccc1` [Compound 89, 3-[4-(2-bromoacetyl)-benzyl]-7-methyl-4-oxo-1-phenyl-1,4-dihydro-[1,8]naphthyridine-2-carboxylic acid methyl ester], the melting point was in the range of 189 to 191.1 °C.

Regarding `O=c1c(Cc2ccccc2)c(-c2ncco2)n(-c2ccccc2)c2cc(Cl)ccc12` [Compound 140, 3-benzyl-7-chloro-2-oxazol-2-yl-1-phenyl-1H-quinolin-4-one], the melting point is 219 to 220 °C.

As to `COC(=O)c1c(CN2CCC(S(C)(=O)=O)CC2)c(=O)c2ccc(F)cc2n1-c1ccccc1` [Compound 126, 7-fluoro-3-(4-methanesulfonyl-piperidin-1-ylmethyl)-4-oxo-1-phenyl-1,4-dihydro-quinoline-2-carboxylic acid methyl ester], the melting point is 190 to 191 °C.

Take `COC(=O)c1c(Cc2ccc(S(=O)(=O)C(C)CO)cc2)c(=O)c2ccc(F)cc2n1-c1ccccc1` (stereo not drawn) [Compound 118]: the melting point was in the range of 193.6 to 194.9 °C.

As to `COC(=O)c1c(CN2CCC(C#N)CC2)c(=O)c2ccc(F)cc2n1-c1ccccc1` [Compound 136], the melting point is 159 to 160 °C.

`COC(=O)c1c(Cc2ccc(C(=O)N(C)C)nc2)c(=O)c2ccc(C)nc2n1-c1ccccc1` [Compound 103, 3-(6-Dimethylcarbamoyl-pyridin-3-ylmethyl)-7-methyl-4-oxo-1-phenyl-1,4-dihydro[1,8]naphthyridine-2-carboxylic Acid Methyl Ester] yielded a melting point of 235 to 236 °C.

`COC(=O)c1c(Cc2cnc(OC)nc2)c(=O)c2ccc(F)cc2n1-c1ccccc1` [Compound 125] displayed a melting point of 206 to 207 °C.

`COC(=O)c1c(Cc2ccc(S(=O)(=O)CCO)cc2)c(=O)c2ccc(F)cc2n1-c1ccccc1` [Compound 112] returned a melting point of 165 to 166 °C.

As to `COC(=O)c1c(Cc2ccc(C#N)cc2)c(=O)c2ccc(F)cc2n1-c1ccccc1` [Compound 124], the melting point is 218 to 219 °C.

In turn, `COC(=O)c1c(Cc2ccc(S(=O)(=O)N3CCNCC3)cc2)c(=O)c2ccc(F)cc2n1-c1ccccc1.Cl` came in with a melting point of 214 to 215 °C.

With `COC(=O)c1c(Cc2ccc(S(=O)(=O)N3CCN(C(=O)OC(C)(C)C)CC3(C)C)cc2)c(=O)c2ccc(F)cc2n1-c1ccccc1` [Compound 113], the melting point was 116 to 117 °C.

Molecule `C=CCn1c(C(=O)OC)c(Cc2ccc(S(C)(=O)=O)cc2)c(=O)c2ccc(C)nc21` [Compound 139] came in with a melting point of 168 to 169 °C.

As to `COC(=O)c1c(CN2CCN(S(C)(=O)=O)CC2)c(=O)c2ccc(F)cc2n1-c1ccccc1` [Compound 131], the melting point lay in the range of 205 to 207 °C.

The molecule `COC(=O)c1c(Cc2ccc(SCCO)cc2)c(=O)c2ccc(F)cc2n1-c1ccccc1` [Compound 111] had a melting point of 163 to 164 °C.

Molecule `COC(=O)c1c(CN2CCn3c(nnc3C(F)(F)F)C2)c(=O)c2ccc(F)cc2n1-c1ccccc1` [Compound 134] displayed a melting point of 107 to 110 °C.

`COC(=O)c1c(CN2CCOCC2)c(=O)c2ccc(F)cc2n1-c1ccccc1` [Compound 123] yielded a melting point of 169 to 170 °C.

The molecule `CCNC(=O)c1ccc(Cc2c(C(=O)OC)n(-c3ccccc3)c3nc(C)ccc3c2=O)cn1` [Compound 101, 3-(6-Ethylcarbamoyl-pyridin-3-ylmethyl)-7-methyl-4-oxo-1-phenyl-1,4-dihydro[1,8]naphthyridine-2-carboxylic Acid Methyl Ester] came in with a melting point of 208 to 209 °C.

The values above are taken from patent US8163906B2, “Dihydroquinone and dihydronaphthridine inhibitors of JNK” (Roche Palo Alto, LLC, priority 2007, dated 2012).
